US10690666B2, “Methods and compositions for modulating TH-GM cell function” (National University of Singapore, priority 2014, dated 2020)

Tests used:
naïve CD4+ T cells [1] = test: In vitro TH1 differentiation; assay type: cell-based, mouse; conditions: data not shown
Protocol: CD4^+ T cells were obtained from spleens and lymph nodes by positive selection and magnetic separation (Miltenyi Biotech), followed by purification of naïve CD4^+ T cell population (CD4^+CD25^−CD62L^hiCD44^lo) sorted with FACS Aria. Naïve CD4^+ T cells were stimulated with plate-bound anti-CD3 (3 μg/ml; BD Pharmingen) and anti-CD28 (1 μg/ml; BD Pharmingen) in presence of different combinations of neutralizing antibodies and cytokines for 3˜4 days: for neutral conditions, no addition of any cytokine or neutralizing antibody; for TH1 conditions, IL-12 (10 ng/ml), and anti-IL-4 (10 μg/ml, BD Pharmingen); for TH17 conditions, hTGF-β (3 ng/ml), IL-6 (20 ng/ml), anti-IFN-γ (10 μg/ml, eBioscience), and anti-IL-4 (10 μg/ml); for an alternative TH17 conditions, IL-6 (20 ng/ml), IL-23 (10 ng/ml), IL-1β (10 ng/ml), anti-IFN-γ (10 μg/ml), and anti-IL-4 (10 μg/ml). For GM-CSF-expressing cell differentiation, naïve CD4^+ T cells were stimulated with plate-bound anti-CD3 (2 μg/ml) and soluble anti-D28 (1 μg/ml) with the addition of IL-7 and/or anti-IFN-γ (10 μg/ml) as indicated. All cytokines were obtained from R&D Systems. […] Cells were acquired on the LSR II (BD Biosciences) and analyzed with FlowJo software (Tree Star). […]

naïve CD4+ T cells [2] = test: In vitro TH-GM (GM-CSF-expressing TH) differentiation from naïve CD4+ T cells; assay type: cell-based, mouse; conditions: TH-GM cell-favoring condition, inhibitor 3 days
Protocol: Naïve CD4^+ T cells were primed with plate-bound anti-CD3 and soluble anti-CD28 in the presence of a combination of various cytokines and neutralizing antibodies as indicated. GM-CSF, IL-17 and IFN-γ expression was analyzed by intracellular staining (FIG. 13A) or RT-PCR (FIG. 13B)
GM-CSF and IFN-γ expression in naive CD4^+ T cells activated for 72 h with anti-CD3 alone or plus anti-CD28 (FIG. 14A). In FIG. 14B, sorted naïve CD4^+ T cells were stimulated with anti-CD3 and anti-CD28 in the presence of neutralizing antibodies against IL-12 and IFN-γ without or with the addition of IL-6. The frequencies of GM-CSF^+ and IL-17^+ cells were measured by intracellular staining (FIG. 14B). In FIG. 14C, naïve CD4^+ T cells from Stat3^+/+ and Stat3^−/− mice were polarized under conditions as indicated for 72 h. The frequencies of GM-CSF^+ and IL-17^+ cells were analyzed. In FIG. 14D, naïve CD4^+ T cells were activated with anti-CD3 and anti-CD28 in the presence of IL-2 or anti-IL-2. The frequencies of GM-CSF^+, IL-17^+ and IFN-γ^+ cells were analyzed.
Naïve CD4^+ T cells were primed with plate-bound anti-CD3 and soluble anti-CD28 in the presence of various concentration of IL-7 as indicated. GM-CSF and IFN-γ expression was analyzed by intracellular staining (FIG. 15A) or ELISA (FIG. 15B). In FIGS. 15C and 15D, Stat5^+/+ and Stat5^−/− naïve CD4^+ T cells were activated with anti-CD3 and anti-CD28 in the presence IL-7 for 3 days. GM-CSF, IL-17 and IFN-γ expression was analyzed by intracellular cytokine staining (FIG. 15C). GM-CSF secretion was measured by ELISA (FIG. 15D).

STAT3 = biological target: T1, STAT3 (Mus musculus, UniProt P42227); test: IL-6-induced STAT3 activation (Tyr705 phosphorylation) in CD4+ T cells, immunoblotting; assay type: cell-based; conditions: 50 or 100 μM; IL-6 30 min
T1 construct: endogenous in cells; host or cells: primary mouse CD4+ T cells (spleen and lymph nodes)
Protocol: (§1) FIGS. […] depict inhibition of STAT5 activation suppresses TH-GM cell differentiation in vitro. CD4^+ T cells were pre-incubated with STAT5 inhibitor (Calbiochem) (FIG. 22A) or JAK3 inhibitor (FIG. 22B) at indicated concentrations or vehicle (−) for 1 h before stimulation with IL-7 for 30 min. Activation (Tyr694 phosphorylation) of STAT5 was determined by immunoblotting. CD4^+ T cells were pre-incubated with STAT5 inhibitor at indicated concentrations or vehicle (−) for 1 h before stimulation with IL-6 for 30 min. Activation (Tyr705 phosphorylation) of STAT3 was determined by immunoblotting (FIG. 22C). In FIG. 22D, CD4^+ T cells were pre-incubated with STAT5 inhibitor at indicated concentrations or vehicle (−) for 1 h before stimulation with IFN-γ for 30 min. Activation (Tyr701 phosphorylation) of STAT1 was determined by immunoblotting. In FIG. 22E, naïve CD4^+ T cells were isolated and activated under neutral condition or TH-GM cell-favoring condition with the addition of different concentrations of STAT5 inhibitor for 3 days. GM-CSF and IFN-γ expression was analyzed by intracellular cytokine staining and flow cytometry.
(§2) The effect of disrupting STAT5 activation by chemical inhibitor was examined to explore possible methods of treating autoimmune neuroinflammation. The phosphorylation on the key tyrosine residue in SH2 domain is crucial for STAT5 activation and function. […]

naïve CD4+ T cells [3] = test: In vitro TH17 differentiation; assay type: cell-based, mouse; conditions: data not shown
Protocol: CD4^+ T cells were obtained from spleens and lymph nodes by positive selection and magnetic separation (Miltenyi Biotech), followed by purification of naïve CD4^+ T cell population (CD4^+CD25^−CD62L^hiCD44^lo) sorted with FACS Aria. Naïve CD4^+ T cells were stimulated with plate-bound anti-CD3 (3 μg/ml; BD Pharmingen) and anti-CD28 (1 μg/ml; BD Pharmingen) in presence of different combinations of neutralizing antibodies and cytokines for 3˜4 days: for neutral conditions, no addition of any cytokine or neutralizing antibody; for TH1 conditions, IL-12 (10 ng/ml), and anti-IL-4 (10 μg/ml, BD Pharmingen); for TH17 conditions, hTGF-β (3 ng/ml), IL-6 (20 ng/ml), anti-IFN-γ (10 μg/ml, eBioscience), and anti-IL-4 (10 μg/ml); for an alternative TH17 conditions, IL-6 (20 ng/ml), IL-23 (10 ng/ml), IL-1β (10 ng/ml), anti-IFN-γ (10 μg/ml), and anti-IL-4 (10 μg/ml). […] Cells were acquired on the LSR II (BD Biosciences) and analyzed with FlowJo software (Tree Star).
Stat5 deletion (Cd4-cre; Stat5^f/−) mice was reported to develop peripheral lymphopenia, with a reduction of both CD4^+ and CD8^+ T cells (Yao et al., 2006). […] Furthermore, increased frequencies of IL-17^+ and IFN-γ^+ cells were detected among CD4^+ T cells in spleens of Stat5^−/− mice (FIG. 4C), which further support the idea that the resistance to EAE in Stat5^−/− mice is likely independent of TH1 and TH17 generation. […]

STAT1 = biological target: T2, STAT1 (Mus musculus, UniProt P42225); test: IFN-γ-induced STAT1 activation (Tyr701 phosphorylation) in CD4+ T cells, immunoblotting; assay type: cell-based; conditions: 50 or 100 μM; IFN-γ 30 min
T2 construct: endogenous in cells; host or cells: primary mouse CD4+ T cells (spleen and lymph nodes)
T2 sequence (P42225 1-749): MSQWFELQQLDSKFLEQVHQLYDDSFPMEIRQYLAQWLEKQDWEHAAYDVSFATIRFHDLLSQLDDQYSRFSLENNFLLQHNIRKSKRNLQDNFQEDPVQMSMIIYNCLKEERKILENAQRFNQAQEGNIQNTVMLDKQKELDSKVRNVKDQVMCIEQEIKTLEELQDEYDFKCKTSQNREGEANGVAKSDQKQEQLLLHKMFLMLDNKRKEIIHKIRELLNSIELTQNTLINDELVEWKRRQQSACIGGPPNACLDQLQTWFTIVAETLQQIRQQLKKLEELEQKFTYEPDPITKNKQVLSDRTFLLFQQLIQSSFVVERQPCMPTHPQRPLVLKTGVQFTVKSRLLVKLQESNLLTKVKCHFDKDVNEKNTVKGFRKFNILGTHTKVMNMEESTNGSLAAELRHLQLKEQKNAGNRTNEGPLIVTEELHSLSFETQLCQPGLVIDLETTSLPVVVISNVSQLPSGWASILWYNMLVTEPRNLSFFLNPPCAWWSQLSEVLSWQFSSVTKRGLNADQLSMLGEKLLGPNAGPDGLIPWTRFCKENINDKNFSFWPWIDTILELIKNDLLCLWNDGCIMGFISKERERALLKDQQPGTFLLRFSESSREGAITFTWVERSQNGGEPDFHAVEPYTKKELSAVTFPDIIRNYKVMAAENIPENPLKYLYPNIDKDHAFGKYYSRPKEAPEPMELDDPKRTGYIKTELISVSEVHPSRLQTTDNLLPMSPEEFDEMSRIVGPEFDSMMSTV
Protocol: as §1, §2

STAT5 [4] = test: IL-7-induced STAT5 activation (Tyr694 phosphorylation) in CD4+ T cells, immunoblotting; assay type: cell-based, mouse; conditions: pre-incubated 1 h, IL-7 30 min
Protocol: as §1, §2

EAE mice = test: EAE (MOG35-55/CFA) model; assay type: in vivo
Protocol: (FIG. 23A) Clinical EAE scores of wild-type control mice (n=5) or administrated with STAT5 inhibitor (Calbiochem). Arrow indicates the treatment points. (FIG. 23B) Histology of spinal cords at day 18 of EAE mice receiving different treatments. (FIG. 23C) Intracellular staining and flow cytometry of CNS-infiltrating CD4^+ T cells at peak of disease. (FIG. 23D) Whole CNS was harvest for RNA extraction. GM-CSF mRNA expression was analyzed by RT-PCR. Data represent two independent experiments. *p<0.05.
EAE induction procedures were modified from previous report^3. For active EAE induction, mice were immunized in two sites on the hind flanks with 300 μg MOG35-55 in 100 μl CFA containing 5 mg/ml heat-killed M. tuberculosis strain H37Ra (Difco) at day 0 and day 7. Pertussis toxin (List Bio Lab) was administrated intraperitoneally at the dosage of 500 ng per mouse at day 1 and day 8. For single MOG35-55/CFA immunization, the similar procedure was performed at day 0 and day 1 only. In an alternative active EAE induction, LPS (600 μg/ml in IFA, O111:B4 from Sigma) was used as adjuvant. […] Clinical symptoms were scored as follows: 0, no clinical sign; 1, loss of tail tone; 2, wobbly gait; 3, hind limb paralysis; 4, hind and fore limb paralysis; 5, death. […] For analysis of CNS-infiltrating cells, both spinal cord and brain were collected and minced from perfused mice, and mononuclear cells were isolated by gradient centrifuge with Percoll (GE Healthcare).
To explore the therapeutic effect of targeting STAT5 activation in EAE disease, the commercial STAT5 inhibitor was administered to wild-type mice intraperitoneally every other day after disease onset. Development of paralysis was assessed by daily assignment of clinical scores.

STAT5 [5] = conditions: Muller et al., 2008; cited from earlier work

T1 sequence (P42227 whole entry): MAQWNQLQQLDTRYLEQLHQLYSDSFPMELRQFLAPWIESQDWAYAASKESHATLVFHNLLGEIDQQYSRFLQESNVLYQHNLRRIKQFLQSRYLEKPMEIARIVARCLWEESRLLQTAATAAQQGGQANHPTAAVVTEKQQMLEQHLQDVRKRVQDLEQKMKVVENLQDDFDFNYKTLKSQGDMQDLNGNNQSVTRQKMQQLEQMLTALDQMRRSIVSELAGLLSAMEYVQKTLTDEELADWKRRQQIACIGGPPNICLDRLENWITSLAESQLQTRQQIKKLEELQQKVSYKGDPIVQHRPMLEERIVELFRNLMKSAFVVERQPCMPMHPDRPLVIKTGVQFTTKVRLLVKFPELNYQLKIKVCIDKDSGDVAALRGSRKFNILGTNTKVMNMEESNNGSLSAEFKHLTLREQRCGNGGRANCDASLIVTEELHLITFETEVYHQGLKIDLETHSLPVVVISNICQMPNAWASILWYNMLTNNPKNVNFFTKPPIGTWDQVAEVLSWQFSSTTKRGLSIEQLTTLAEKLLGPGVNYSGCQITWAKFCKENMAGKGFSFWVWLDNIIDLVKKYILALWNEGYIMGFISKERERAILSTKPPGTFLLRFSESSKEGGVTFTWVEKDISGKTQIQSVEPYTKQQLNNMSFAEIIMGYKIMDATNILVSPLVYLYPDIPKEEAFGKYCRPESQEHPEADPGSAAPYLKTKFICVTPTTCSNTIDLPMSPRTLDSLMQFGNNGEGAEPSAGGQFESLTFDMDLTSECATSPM

Compound: O=C(N/N=C/c1coc2ccccc2c1=O)c1cccnc1 [STAT5 inhibitor]
- TH1 differentiation (naïve CD4+ T cells [1]): Reduced TH1 differentiation
- TH-GM differentiation (naïve CD4+ T cells [2]): suppressed TH-GM differentiation in a dosage-dependent manner
- inhibitory effect on STAT3 activation (STAT3): minimal inhibitory effect
- TH17 differentiation (naïve CD4+ T cells [3]): not suppressed
- inhibitory effect on STAT1 activation (STAT1): minimal inhibitory effect
- inhibitory effect on STAT5 activation upon IL-7 stimulation (STAT5 [4]; 50 μM): about 50%
- inhibitory effect on STAT5 activation upon IL-7 stimulation (STAT5 [4]; FIG. 22A, 22B): low affinity and thus required a high concentration to fully block STAT5 activation
- GM-CSF production in CNS-infiltrating CD4+ T cells (EAE mice; inhibitor-treated EAE mice, peak of disease): reduced GM-CSF production
- EAE severity (clinical scores) (EAE mice; wild-type mice, intraperitoneally every other day after disease onset): ameliorated EAE severity
- immune cell infiltration in the CNS (EAE mice; wild-type mice, intraperitoneally every other day after disease onset, day 18): reduced immune cell infiltration in the CNS
- disruption of tyrosine phosphorylation and DNA binding of STAT5 (STAT5 [5]): selectively disrupt tyrosine phosphorylation and DNA binding of STAT5
